This experiment has as its target T1, Recombinant human HSD17B13 enzyme (Homo sapiens, UniProt Q7Z5P4).
T1 sequence (Q7Z5P4 20-300): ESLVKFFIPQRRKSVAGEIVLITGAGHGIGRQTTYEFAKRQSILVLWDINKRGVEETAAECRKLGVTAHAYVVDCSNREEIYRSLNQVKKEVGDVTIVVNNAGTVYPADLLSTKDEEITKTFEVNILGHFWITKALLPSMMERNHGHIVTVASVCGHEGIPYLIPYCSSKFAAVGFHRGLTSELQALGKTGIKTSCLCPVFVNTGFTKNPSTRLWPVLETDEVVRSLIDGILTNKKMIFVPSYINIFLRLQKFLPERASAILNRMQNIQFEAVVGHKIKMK
Description: HSD17b13 NAD(P)H-Glo biochemical assay. The note with it: for IC50: 50 uM estradiol, 1 mM NAD+, NAD(P)H-Glo luminescence, read-out: HSD17β13 IC50. On the procedure: Example B-1: HSD17b13 NAD(P)H-Glo Biochemical Assay
Recombinant human HSD17B13 enzyme. Substrate: estradiol (Sigma β-Estradiol E8875), 100 mM in DMSO. Cofactor: NAD+ Grade I free acid (Sigma 10127965001), 20 mM in H2O. Assay buffer final concentration: 20 mM Tris pH7.4 with 0.002% Tween-20 and 0.02% BSA. Assay performed in 384 well solid bottom plate (Corning 3570). Enzymatic activity detected by NAD(P)H-Glo™ Detection System (Promega G9062).
Inhibitor compounds were serially diluted in DMSO and then further diluted in assay buffer to a 10× concentration consisting of 1% DMSO.
HSD17b13 enzyme was diluted in 1× assay buffer to the desired enzyme concentration based on the specific activity of the enzyme lot. 20 uL of diluted enzyme was added to each well along with 2.5 uL of 10× inhibitor solution. Assay plate was incubated at RT for 20 minutes, and then 2.5 uL of a 10× substrate/cofactor mix was added to each well for a final concentration of 50 uM estradiol and 1 mM NAD+. Assay plate was incubated at 37° C. for 3 hours. NAD(P)H-Glo™ Detection System reagents were prepared according to manufacturer's specifications, and 25 uL was added to each well. After incubating for 1 hour at RT, luminescence was measured.

27 compounds from patent US20240083861A1, “HSD17B13 INHIBITORS AND USES THEREOF” (FL2022-001, Inc., priority 2020, published 2024) can be followed below.

Broadly, the IC50 is the concentration that gives 50% inhibition. Usually inhibition stands for the percentage by which the read-out fell short of the control.

The structures appear in SMILES notation. A value given as a limit tells only on which side of the number the result lay.

On to `Cn1nc(-c2cc(C(F)(F)F)c(F)c(O)c2F)c2cnc(N3CC(C)(C#N)C3)cc21` [Compound 9.08, 1-(3-(2,4-Difluoro-3-hydroxy-5-(trifluoromethyl)phenyl)-1-methyl-1H-pyrazolo[4,3-c]pyridin-6-yl)-3-methylazetidine-3-carbonitrile], for which the IC50 was under 100 nM.

Turning to `Cn1nc(-c2cc(C(F)(F)F)c(F)c(O)c2F)c2cnc(N3CC(C)(C#N)C3)nc21` [Compound 9.09, 1-(3-(2,4-Difluoro-3-hydroxy-5-(trifluoromethyl)phenyl)-1-methyl-1H-pyrazolo[3,4-d]pyrimidin-6-yl)-3-methylazetidine-3-carbonitrile], the IC50 was in the range of 100 to 1000 nM.

As to `Cn1nc(-c2cc(C(F)(F)F)c(F)c(O)c2F)c2cnc(N3CC4(CCOCC4)C3)cc21` [Compound 9.10, 2,6-Difluoro-3-(1-methyl-6-(7-oxa-2-azaspiro[3.5]nonan-2-yl)-1H-pyrazolo[4,3-c]pyridin-3-yl)-5-(trifluoromethyl)phenol], the IC50 was under 100 nM.

For the compound `CN(CC1CC1)c1cc2c(cn1)c(-c1cc(C(F)(F)F)c(F)c(O)c1F)nn2C` [Compound 9.11, 3-(6-((Cyclopropylmethyl) (methyl)amino)-1-methyl-1H-pyrazolo[4,3-c]pyridin-3-yl)-2,6-difluoro-5-(trifluoromethyl)phenol], the IC50 was under 100 nM.

For the compound `Cn1nc(-c2cc(C(F)(F)F)c(F)c(O)c2F)c2cnc(N3CC4(COC4)C3)cc21` [Compound 9.12, 2,6-Difluoro-3-(1-methyl-6-(2-oxa-6-azaspiro[3.3]heptan-6-yl)-1H-pyrazolo[4,3-c]pyridin-3-yl)-5-(trifluoromethyl)phenol], the IC50 was under 100 nM.

`COC1(C)CN(c2ncc3c(-c4cc(C(F)(F)F)c(F)c(O)c4F)nn(C)c3n2)C1` [Compound 9.13, 2,6-Difluoro-3-(6-(3-methoxy-3-methylazetidin-1-yl)-1-methyl-1H-pyrazolo[3,4-d]pyrimidin-3-yl)-5-(trifluoromethyl)phenol]: the IC50 was under 100 nM.

Turning to `Cn1nc(-c2cc(C(F)(F)F)c(F)c(O)c2F)c2cnc(NC3CCC3)cc21` [Compound 9.14, 3-(6-(Cyclobutylamino)-1-methyl-1H-pyrazolo[4,3-c]pyridin-3-yl)-2,6-difluoro-5-(trifluoromethyl)phenol], the IC50 is under 100 nM.

On to `Cn1nc(-c2cc(C(F)(F)F)c(F)c(O)c2F)c2cnc(NC34CC(C3)C4)nc21` [Compound 9.15, 3-(6-(Bicyclo[1.1.1]pentan-1-ylamino)-1-methyl-1H-pyrazolo[3,4-d]pyrimidin-3-yl)-2,6-difluoro-5-(trifluoromethyl)phenol], for which the IC50 is under 100 nM.

Consider `Cn1nc(-c2cc(C(F)(F)F)c(F)c(O)c2F)c2cnc(NC3CCC3)nc21` [Compound 9.16, 3-(6-(Cyclobutylamino)-1-methyl-1H-pyrazolo[3,4-d]pyrimidin-3-yl)-2,6-difluoro-5-(trifluoromethyl)phenol], for which the IC50 is under 100 nM.

With `CN(c1cc2c(cn1)c(-c1cc(C(F)(F)F)c(F)c(O)c1F)nn2C)C1CCOCC1` [Compound 9.17, 2,6-Difluoro-3-(1-methyl-6-(methyl(tetrahydro-2H-pyran-4-yl)amino)-1H-pyrazolo[4,3-c]pyridin-3-yl)-5-(trifluoromethyl)phenol], the 50% inhibitory concentration (IC50) was under 100 nM.

Take `CN(c1ccc2c(-c3cc(C(F)(F)F)c(F)c(O)c3F)nn(C)c2n1)C1CCC1` [Compound 9.18, 3-(6-(Cyclobutyl(methyl)amino)-1-methyl-1H-pyrazolo[3,4-b]pyridin-3-yl)-2,6-difluoro-5-(trifluoromethyl)phenol]: the IC50 was under 100 nM.

For `Cn1nc(-c2cc(C(F)(F)F)c(F)c(O)c2F)c2ccc(N3CCOCC34CC4)cc21` [Compound 9.19, 2,6-Difluoro-3-(1-methyl-6-(7-oxa-4-azaspiro[2.5]octan-4-yl)-1H-indazol-3-yl)-5-(trifluoromethyl)phenol], the IC50 was under 100 nM.

In the case of `Cn1nc(-c2cc(C(F)(F)F)c(F)c(O)c2F)c2cnc(N3C4CCC3COC4)cc21` [Compound 9.20, 3-(6-(3-Oxa-8-azabicyclo [3.2.1]octan-8-yl)-1-methyl-1H-pyrazolo[4,3-c]pyridin-3-yl)-2,6-difluoro-5-(trifluoromethyl)phenol], the half-inhibitory concentration (IC50) is under 100 nM.

With `COCC1(N(C)c2cc3c(cn2)c(-c2cc(C(F)(F)F)c(F)c(O)c2F)nn3C)CCC1` [Compound 9.21, 2,6-Difluoro-3-(6-((1-(methoxymethyl)cyclobutyl)(methyl)amino)-1-methyl-1H-pyrazolo[4,3-c]pyridin-3-yl)-5-(trifluoromethyl)phenol], the IC50 was under 100 nM.

For the compound `CS(=O)(=O)N1CCN(c2ccc3c(-c4cc(O)cc(C(F)(F)F)c4F)n[nH]c3c2)CC1` [Compound 9.22, 4-Fluoro-3-(6-(4-(methylsulfonyl)piperazin-1-yl)-1H-indazol-3-yl)-5-(trifluoromethyl)phenol], the inhibition at 10 µM (at 10 uM compound, read-out: HSD17β13 % inhibition at 10 uM) was 36%.

In the case of `CS(=O)(=O)N1CCN(c2ccc3c(-c4cc(O)c(F)c(C(F)(F)F)c4)n[nH]c3c2)CC1` [Compound 9.23, 2-Fluoro-5-(6-(4-(methylsulfonyl)piperazin-1-yl)-1H-indazol-3-yl)-3-(trifluoromethyl)phenol], the IC50 is 100 to 1000 nM.

Take `CS(=O)(=O)N1CCN(c2cc3[nH]nc(-c4cc(O)c(F)c(C(F)(F)F)c4)c3cc2F)CC1` [Compound 9.24, 2-Fluoro-5-(5-fluoro-6-(4-(methylsulfonyl)piperazin-1-yl)-1H-indazol-3-yl)-3-(trifluoromethyl)phenol]: the concentration for half-maximal inhibition (IC50) was in the range of 100 to 1000 nM.

Regarding `Cc1cc(-c2n[nH]c3cc(N4CCN(S(C)(=O)=O)CC4)ccc23)c(F)c(O)c1F` [Compound 9.25, 2,6-Difluoro-3-methyl-5-(6-(4-(methylsulfonyl)piperazin-1-yl)-1H-indazol-3-yl)phenol], the IC50 was in the range of 100 to 1000 nM.

For `Cn1nc(-c2cc(O)c(F)c(C(F)(F)F)c2)c2ccc(N3CCN(S(C)(=O)=O)CC3)cc21` [Compound 9.26, 2-Fluoro-5-(1-methyl-6-(4-(methylsulfonyl)piperazin-1-yl)-1H-indazol-3-yl)-3-(trifluoromethyl)phenol], the IC50 fell in the range of 100 to 1000 nM.

As to `CN(c1cc2c(cn1)c(-c1cc(C(F)(F)F)c(F)c(O)c1F)nn2C)C1CCOC1` (stereo not drawn) [Compound 9.27, 2,6-Difluoro-3-(1-methyl-6-(methyl(tetrahydrofuran-3-yl)amino)-1H-pyrazolo[4,3-c]pyridin-3-yl)-5-(trifluoromethyl)phenol], the IC50 was in the range of 100 to 1000 nM.

Consider `Cn1nc(-c2cc(C(F)(F)F)c(F)c(O)c2F)c2cnc(N3CC4CCC3CO4)cc21` (stereo not drawn) [Compound 9.28, 3-(6-(2-Oxa-5-azabicyclo[2.2.2]octan-5-yl)-1-methyl-1H-pyrazolo[4,3-c]pyridin-3-yl)-2,6-difluoro-5-(trifluoromethyl)phenol], for which the IC50 is under 100 nM.

On to `Cn1nc(-c2cc(C(F)(F)F)c(F)c(O)c2F)c2cnc(N(C3CCC3)C3CCOCC3)cc21` [Compound 9.29, 3-(6-(Cyclobutyl(tetrahydro-2H-pyran-4-yl)amino)-1-methyl-1H-pyrazolo[4,3-c]pyridin-3-yl)-2,6-difluoro-5-(trifluoromethyl)phenol], for which the IC50 was under 100 nM.

`C[C@@H]1COCCN1c1cc2c(cn1)c(-c1cc(C(F)(F)F)c(F)c(O)c1F)nn2C` [Compound 9.30, (R)-2,6-Difluoro-3-(1-methyl-6-(3-methylmorpholino)-1H-pyrazolo[4,3-c]pyridin-3-yl)-5-(trifluoromethyl)phenol]: the IC50 was under 100 nM.

In the case of `Cn1nc(-c2cc(C(F)(F)F)c(F)c(O)c2F)c2cnc(N3CCOCC3(C)C)cc21` [Compound 9.31, 3-(6-(3,3-Dimethylmorpholino)-1-methyl-1H-pyrazolo[4,3-c]pyridine-3-yl)-2,6-difluoro-5-(trifluoromethyl)phenol], the IC50 was under 100 nM.

As for `CN(c1cc2c(cn1)c(-c1cc(C(F)(F)F)c(F)c(O)c1F)nn2C)C12CC(C1)C2` [Compound 9.32, 3-(6-(Bicyclo[1.1.1]pentan-1-yl(methyl)amino)-1-methyl-1H-pyrazolo[4,3-c]pyridin-3-yl)-2,6-difluoro-5-(trifluoromethyl)phenol], the IC50 was under 100 nM.

`Cn1nc(-c2cc(C(F)(F)F)c(F)c(O)c2F)c2cnc(N3CCOC(C)(C)C3)cc21` [Compound 9.33, 3-(6-(2,2-Dimethylmorpholino)-1-methyl-1H-pyrazolo[4,3-c]pyridin-3-yl)-2,6-difluoro-5-(trifluoromethyl)phenol]: the IC50 was under 100 nM.

Regarding `CC(C)n1nc(-c2cc(C(F)(F)F)c(F)c(O)c2F)c2cnc(N3CCOCC34CC4)cc21` [Compound 9.34, 2,6-Difluoro-3-(1-isopropyl-6-(7-oxa-4-azaspiro[2.5]octan-4-yl)-1H-pyrazolo[4,3-c]pyridin-3-yl)-5-(trifluoromethyl)phenol], the IC50 was under 100 nM.
